Values belong to the compound of their own block, whether it stands above or below them.
Legend:
eyes of rats = experiment: Corneal sensation by Cochet-Bonnet esthesiometer after one topical drop in rats; conditions: rat eye; for minimum total corneal sensation preserved: at maximal effect (5-15 minutes), tactile sensation
Nav1.7 nociceptor = Nav1.7 nociceptor (Homo sapiens, UniProt Q15858); conditions: versus lidocaine; cited from earlier work
Nav1.8 nociceptor = Nav1.8 nociceptor (Homo sapiens, UniProt Q9Y5Y9); conditions: versus lidocaine; cited from earlier work
rat NOP models = experiment: Rat eye-wipe assay, Epi-off ocular pain model, 2M NaCl challenge; type: in vivo
Excerpt: With minor modification of established rat NOP models, ocular pain was created by removing corneal epithelium (Epi-off) under general anesthesia. 2M NaCl saline (in contrast to 5M NaCl used in previous studies) was used to trigger peripheral neuronal excitement in response to hyperosmolarity while minimizing the potential inherent irritancy to the cornea from 5M NaCl. Then, one hour was given to each rat to allow complete recovery from anesthesia before proceeding to subsequent study steps. […] Due to its short duration of action, a proparacaine group was not included in this study (FIG. 2). The rat eye-wipe assay is an established animal behavioral and neurophysiological tool for the assessment of corneal sensitivity to noxious stimuli (Price T J, et al., Br. J. Pharmacol.). Increased corneal sensitivity was shown in male rats following lacrimal gland excision which correlates with eye wiping behaviors in response to hypertonic saline (5M NaCl) (Meng I D, et al., Invest. Ophthalmol. Vis. Sci. 2015).

cornea = conditions: topical 0.1%, humans; cited from earlier work
[1] = 0.3% and 0.5% ambroxol HCl solutions
[2] = single drop 0.5% ambroxol, Epi-off rats, 2M NaCl

Sequence of Nav1.8 nociceptor (Q9Y5Y9 whole entry): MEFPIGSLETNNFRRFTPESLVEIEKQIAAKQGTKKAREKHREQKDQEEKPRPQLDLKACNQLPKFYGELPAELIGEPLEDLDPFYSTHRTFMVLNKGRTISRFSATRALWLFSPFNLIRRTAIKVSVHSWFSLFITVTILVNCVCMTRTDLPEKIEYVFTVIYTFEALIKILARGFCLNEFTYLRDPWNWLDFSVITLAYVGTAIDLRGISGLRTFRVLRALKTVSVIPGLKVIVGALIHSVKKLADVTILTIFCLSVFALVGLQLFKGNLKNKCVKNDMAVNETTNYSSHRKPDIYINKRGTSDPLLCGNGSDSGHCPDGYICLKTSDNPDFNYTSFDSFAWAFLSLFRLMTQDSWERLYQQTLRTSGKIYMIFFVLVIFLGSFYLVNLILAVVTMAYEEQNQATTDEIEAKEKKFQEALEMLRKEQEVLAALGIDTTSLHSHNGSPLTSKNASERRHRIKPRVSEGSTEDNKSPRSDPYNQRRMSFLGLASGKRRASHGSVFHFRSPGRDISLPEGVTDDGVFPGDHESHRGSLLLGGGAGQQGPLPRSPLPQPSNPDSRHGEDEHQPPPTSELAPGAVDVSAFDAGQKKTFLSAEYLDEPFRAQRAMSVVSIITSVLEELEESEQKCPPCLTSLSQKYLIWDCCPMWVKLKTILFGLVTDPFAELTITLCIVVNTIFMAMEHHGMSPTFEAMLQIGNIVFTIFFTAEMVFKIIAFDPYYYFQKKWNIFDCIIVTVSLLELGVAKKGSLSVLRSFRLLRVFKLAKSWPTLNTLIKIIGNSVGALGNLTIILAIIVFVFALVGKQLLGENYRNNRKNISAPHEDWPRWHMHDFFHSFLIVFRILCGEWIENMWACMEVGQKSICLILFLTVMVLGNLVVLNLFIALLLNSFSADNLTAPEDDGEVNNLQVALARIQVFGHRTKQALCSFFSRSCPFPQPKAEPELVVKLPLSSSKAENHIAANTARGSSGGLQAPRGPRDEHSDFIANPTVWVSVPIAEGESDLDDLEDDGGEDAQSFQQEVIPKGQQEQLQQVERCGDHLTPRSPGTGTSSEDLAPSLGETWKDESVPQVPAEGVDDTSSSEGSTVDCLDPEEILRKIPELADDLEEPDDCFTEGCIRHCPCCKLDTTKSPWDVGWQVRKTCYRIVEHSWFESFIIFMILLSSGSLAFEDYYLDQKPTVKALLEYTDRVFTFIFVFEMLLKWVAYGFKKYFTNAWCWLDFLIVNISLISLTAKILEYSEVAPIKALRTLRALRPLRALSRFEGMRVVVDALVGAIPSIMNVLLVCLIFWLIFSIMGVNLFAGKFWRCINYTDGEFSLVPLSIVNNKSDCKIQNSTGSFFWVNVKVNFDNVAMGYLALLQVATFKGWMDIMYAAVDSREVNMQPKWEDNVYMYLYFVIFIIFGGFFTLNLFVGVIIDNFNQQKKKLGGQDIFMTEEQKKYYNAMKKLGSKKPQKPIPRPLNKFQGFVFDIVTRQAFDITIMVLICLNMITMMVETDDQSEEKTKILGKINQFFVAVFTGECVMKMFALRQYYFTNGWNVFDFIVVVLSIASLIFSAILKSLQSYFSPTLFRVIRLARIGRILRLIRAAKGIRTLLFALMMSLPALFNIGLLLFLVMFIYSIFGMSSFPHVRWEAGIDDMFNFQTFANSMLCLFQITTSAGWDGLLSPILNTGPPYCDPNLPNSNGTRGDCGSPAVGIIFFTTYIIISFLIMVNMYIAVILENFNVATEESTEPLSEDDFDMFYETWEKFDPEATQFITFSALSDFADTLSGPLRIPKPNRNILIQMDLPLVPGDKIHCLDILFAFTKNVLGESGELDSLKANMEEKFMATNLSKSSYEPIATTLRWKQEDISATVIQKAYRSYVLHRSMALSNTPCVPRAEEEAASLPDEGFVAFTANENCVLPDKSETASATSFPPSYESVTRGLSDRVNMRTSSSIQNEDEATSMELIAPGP
Sequence of Nav1.7 nociceptor (Q15858 whole entry): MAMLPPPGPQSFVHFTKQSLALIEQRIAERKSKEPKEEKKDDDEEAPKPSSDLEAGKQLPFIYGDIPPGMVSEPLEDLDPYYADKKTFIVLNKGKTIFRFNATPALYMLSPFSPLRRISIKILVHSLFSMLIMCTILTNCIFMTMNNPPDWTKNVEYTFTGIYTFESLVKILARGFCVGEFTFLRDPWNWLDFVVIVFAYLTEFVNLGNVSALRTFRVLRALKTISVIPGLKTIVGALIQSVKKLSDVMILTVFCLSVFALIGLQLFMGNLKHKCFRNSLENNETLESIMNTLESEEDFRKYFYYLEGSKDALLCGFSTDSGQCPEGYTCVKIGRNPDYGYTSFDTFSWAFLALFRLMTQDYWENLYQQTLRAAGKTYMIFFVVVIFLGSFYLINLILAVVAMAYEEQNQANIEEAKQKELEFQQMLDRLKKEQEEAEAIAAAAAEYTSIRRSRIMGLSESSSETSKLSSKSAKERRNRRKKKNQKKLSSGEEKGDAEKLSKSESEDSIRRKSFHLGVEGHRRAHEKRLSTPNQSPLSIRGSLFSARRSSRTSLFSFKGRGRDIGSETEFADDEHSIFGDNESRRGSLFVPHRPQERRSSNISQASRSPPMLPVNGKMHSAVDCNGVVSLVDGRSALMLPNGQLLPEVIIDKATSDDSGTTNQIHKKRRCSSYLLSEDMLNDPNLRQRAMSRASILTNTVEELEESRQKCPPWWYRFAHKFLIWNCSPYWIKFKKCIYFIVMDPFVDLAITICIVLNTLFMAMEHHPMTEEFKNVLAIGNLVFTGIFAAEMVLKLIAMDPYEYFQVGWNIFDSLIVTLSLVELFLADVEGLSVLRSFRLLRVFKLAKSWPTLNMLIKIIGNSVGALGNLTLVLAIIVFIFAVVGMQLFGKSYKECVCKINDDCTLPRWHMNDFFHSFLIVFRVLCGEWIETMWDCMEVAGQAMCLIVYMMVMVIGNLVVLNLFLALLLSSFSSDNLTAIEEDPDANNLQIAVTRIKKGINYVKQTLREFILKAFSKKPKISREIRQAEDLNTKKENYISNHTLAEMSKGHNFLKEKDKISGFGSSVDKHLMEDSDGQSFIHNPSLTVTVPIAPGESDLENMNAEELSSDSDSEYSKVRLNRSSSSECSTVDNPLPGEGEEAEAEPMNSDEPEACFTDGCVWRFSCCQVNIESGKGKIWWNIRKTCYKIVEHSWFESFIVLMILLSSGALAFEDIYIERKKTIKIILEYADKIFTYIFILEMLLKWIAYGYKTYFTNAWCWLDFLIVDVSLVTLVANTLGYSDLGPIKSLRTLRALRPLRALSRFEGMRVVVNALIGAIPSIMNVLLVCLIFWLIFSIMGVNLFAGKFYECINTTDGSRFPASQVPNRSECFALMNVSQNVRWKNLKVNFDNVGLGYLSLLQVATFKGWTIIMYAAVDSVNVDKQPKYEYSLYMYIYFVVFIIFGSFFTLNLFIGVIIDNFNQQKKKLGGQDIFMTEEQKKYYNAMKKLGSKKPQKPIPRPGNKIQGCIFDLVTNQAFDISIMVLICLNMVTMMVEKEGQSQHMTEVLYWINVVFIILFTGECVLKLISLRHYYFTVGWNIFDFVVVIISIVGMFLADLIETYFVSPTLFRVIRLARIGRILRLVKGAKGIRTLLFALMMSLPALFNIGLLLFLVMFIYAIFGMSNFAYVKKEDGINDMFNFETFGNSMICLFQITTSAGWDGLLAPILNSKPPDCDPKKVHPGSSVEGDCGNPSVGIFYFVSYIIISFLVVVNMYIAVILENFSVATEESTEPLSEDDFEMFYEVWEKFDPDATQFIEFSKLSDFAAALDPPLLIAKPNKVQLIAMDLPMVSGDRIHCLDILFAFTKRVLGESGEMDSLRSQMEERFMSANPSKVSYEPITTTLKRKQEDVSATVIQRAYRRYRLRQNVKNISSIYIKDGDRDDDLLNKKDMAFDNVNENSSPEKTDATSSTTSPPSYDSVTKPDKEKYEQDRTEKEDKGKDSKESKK

sensitivity to hyperosmolarity at the ocular surface (rat NOP models; [2]): obviously preserved
Compound: Nc1c(Br)cc(Br)cc1CN[C@H]1CC[C@H](O)CC1 [ambroxol, trans-4-(2-Amino-3,5-dibrombenzylamino)-cyclohexanol]
minimum total corneal sensation preserved (eyes of rats; 0.3% ambroxol HCl solution): ≥ 15%
duration of drug action on corneal sensation (eyes of rats; [1]): about 4 hours
time of maximal effect on corneal sensation (eyes of rats; [1]): 5 to 15 min
minimum total corneal sensation preserved (eyes of rats; 0.5% ambroxol HCl solution): ≥ 15%
binding affinity for the Nav1.7 nociceptor relative to lidocaine (Nav1.7 nociceptor): same level
potency in binding the Nav1.8 nociceptor relative to lidocaine (Nav1.8 nociceptor): 40 times
potency of Nav1.8 block relative to lidocaine (Nav1.8 nociceptor): approximately 40 times
time of maximal effect in eye-wipe assay (rat NOP models; 0.5% ambroxol-containing formulation, after administration): up to 30 min
duration of reduction in eye wiping count/min (rat NOP models; [2]): at least 4 hours
eye wiping count/min in response to 2M NaCl (rat NOP models; single drop 0.5% ambroxol, Epi-off rats, versus carrier buffer control): significant reduction

Compound: O=C(O)Cc1ccccc1Nc1c(Cl)cccc1Cl [diclofenac]
cornea anesthetic effect (cornea): does not have clinically significant cornea anesthetic effect

Compound: CCCOc1ccc(C(=O)OCCN(CC)CC)cc1N [proparacaine]
corneal sensor network block (FIG. 1) (eyes of rats; 0.5% proparacaine): completely blocked
change in eye wiping counts before (Epi-on) and after surgery (Epi-off) (rat NOP models; 0.5% proparacaine HCl, at its maximal effect (5 min), data not shown): no significant change

Source: US20250108001A1, “TOPICAL OCULAR ADMINISTRATION OF AMBROXOL FOR OCULAR PAIN” (NeuVision Development LLC, priority 2022, published 2025)
